Source: patent publication US9388141B2, “Acylaminocycloalkyl compounds suitable for treating disorders that respond to modulation of dopamine D3 receptor” (AbbVie Deutschland GmbH & Co. KG, priority 2013, dated 2016)

Key:
[1] = target: T1, human dopamine D3 receptors (Homo sapiens, UniProt P35462); experiment: Dopamine D3 receptor binding, [125I]-iodosulpride displacement; details: membranes of HEK-293 cells with human D3 receptors, 0.1 nM [125I]-iodosulpride
T1 construct: expressed in transfected cells; host or cells: HEK-293
T1 sequence (P35462 whole entry): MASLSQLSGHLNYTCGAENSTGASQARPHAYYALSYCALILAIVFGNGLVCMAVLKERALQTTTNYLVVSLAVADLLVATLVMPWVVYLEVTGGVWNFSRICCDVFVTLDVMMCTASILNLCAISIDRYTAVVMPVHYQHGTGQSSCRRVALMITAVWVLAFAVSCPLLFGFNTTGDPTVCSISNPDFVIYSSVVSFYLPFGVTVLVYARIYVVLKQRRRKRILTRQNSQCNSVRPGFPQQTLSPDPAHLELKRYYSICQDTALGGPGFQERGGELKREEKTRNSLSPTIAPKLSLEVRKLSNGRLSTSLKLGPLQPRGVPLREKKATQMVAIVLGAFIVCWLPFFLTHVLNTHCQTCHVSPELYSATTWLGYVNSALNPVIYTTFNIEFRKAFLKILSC
Experimental: (§1) The substance to be tested was either dissolved in methanol/Chremophor® (BASF SE) or in dimethyl sulfoxide and then diluted with water to the desired concentration.
(§2) Each assay mixture was run in triplicate. • The incubation buffer contained 50 mM tris, 120 mM NaCl, 5 mM KCl, 2 mM CaCl2, 2 mM MgCl2 and 0.1% bovine serum albumin, 10 μM quinolone and 0.1% ascorbic acid (prepared fresh daily). […] Each assay mixture was run in triplicate. • The incubation buffer contained 50 mM tris, 120 mM NaCl, 5 mM KCl, 2 mM CaCl2, 2 mM MgCl2 and 0.1% bovine serum albumin. The buffer was adjusted to pH 7.4 with HCl. c) Measurement and Analysis: • After having been incubated at 25° C. for 60 minutes, the assay mixtures were filtered through a Whatman GF/B glass fiber filter under vacuum using a cell collecting device. The filters were transferred to scintillation viols using a filter transfer system. After 4 ml of Ultima Gold® (Packard) have been added, the samples were shaken for one hour and the radioactivity was then counted in a Beta-Counter (Packard, Tricarb 2000 or 2200CA).

[2] = target: T2, human dopamine D2L receptors (long isoform) (Homo sapiens, UniProt P14416); experiment: Dopamine D2L receptor binding, [125I]-iodospiperone displacement; details: selectivity ratio Ki (D2L)/Ki (D3)
T2 construct: expressed in transfected cells; host or cells: HEK-293
T2 sequence (P14416 whole entry, canonical isoform): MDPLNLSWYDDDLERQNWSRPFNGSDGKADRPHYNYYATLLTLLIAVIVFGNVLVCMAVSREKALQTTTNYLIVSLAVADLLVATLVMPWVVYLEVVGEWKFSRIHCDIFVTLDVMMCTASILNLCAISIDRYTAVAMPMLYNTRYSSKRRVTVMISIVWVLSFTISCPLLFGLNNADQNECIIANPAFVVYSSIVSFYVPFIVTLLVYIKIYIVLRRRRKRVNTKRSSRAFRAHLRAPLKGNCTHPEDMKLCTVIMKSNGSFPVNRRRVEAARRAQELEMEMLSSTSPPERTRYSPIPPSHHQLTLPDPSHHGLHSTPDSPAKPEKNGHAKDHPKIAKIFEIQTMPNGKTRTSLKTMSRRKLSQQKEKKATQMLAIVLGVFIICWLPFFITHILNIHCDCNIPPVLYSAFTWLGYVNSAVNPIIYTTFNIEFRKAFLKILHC
Experimental: as §1, §2

[3] = Determination of the microsomal half-life / microsomal clearance; assay type: in vitro ADME; details: human liver microsomes, 0.5 μM test substance, 0.25 mg microsomal protein/ml, pH 7.4, 37° C.
Experimental: The metabolic stability of the compounds of the invention was determined in the following assay.
The test substances were incubated in a concentration of 0.5 μM as follows:
0.5 μM test substance are preincubated together with liver microsomes from different species (from rat, human or other species) (0.25 mg of microsomal protein/ml) in 0.05 M potassium phosphate buffer of pH 7.4 in microtiter plates at 37° C. for 5 min. The reaction is started by adding NADPH (1 mg/mL). After 0, 5, 10, 15, 20 and 30 min, 50 μl aliquots are removed, and the reaction is immediately stopped and cooled with the same volume of acetonitrile. The samples are frozen until analyzed. The remaining concentration of undegraded test substance is determined by MSMS. The half-life (T1/2) is determined from the gradient of the signal of test substance/unit time plot, it being possible to calculate the half-life of the test substance, assuming first order kinetics, from the decrease in the concentration of the compound with time. The microsomal clearance (mCl) is calculated from mCl=1n2/T1/2/(content of microsomal protein in mg/ml)×1000 [[…]] (modified from references: Di, The Society for Biomoleculur Screening, 2003, 453-462; Obach, DMD, 1999 vol 27. N 11, 1350-1359).

| SMILES | Ki [1] [nM] | D2/D3, Ki (D2L)/Ki (D3) [2] | Human mCl [3] |
| --- | --- | --- | --- |
| CC(C)(C)c1nc(N2CCN(CC[C@H]3CC[C@@H](NC(=O)[C@H]4CC[C@H](O)CC4)CC3)CC2)cc(C(F)(F)F)n1 [Compound 23, Trans-N-[cis-4-[2-[4-[2-tert-butyl-6-(trifluoromethyl)pyrimidin-4-yl]piperazin-1-yl]ethyl]cyclohexyl]-4-hydroxy-cyclohexanecarboxamide] | < 50 | +++ (+++>50) | + (+: 20-120 μl min^−1 mg^−1) |
| CC(C)(C)c1nc(C2CCC2)cc(N2CCN(CC[C@H]3CC[C@H](NC(=O)[C@H]4C[C@H](O)C4)CC3)CC2)n1.O=C(O)C(F)(F)F [Compound 38, trans-N-[trans-4-[2-[4-(2-tert-butyl-6-cyclobutyl-pyrimidin-4-yl)piperazin-1-yl]ethyl]cyclohexyl]-3-hydroxy-cyclobutanecarboxamide; 2,2,2-trifluoroacetic acid] | < 10 | ++ (++>20) | ++ (++: <20 μl min^−1 mg^−1) |
| CC(C)c1cc(N2CCN(CCC3CCC(NC(=O)C4CCC(O)CC4)CC3)CC2)nc(C(C)(C)C)n1 (stereo not shown) [Compound 31, N-[4-[2-[4-(2-tert-butyl-6-isopropyl-pyrimidin-4-yl)piperazin-1-yl]ethyl]cyclohexyl]-4-hydroxy-cyclohexanecarboxamide] | < 10 | ++ (++>20) | + (+: 20-120 μl min^−1 mg^−1) |
| CC(C)(C)c1nc(N2CCN(CCC3CCC(NC(=O)C4CCC(O)CC4)CC3)CC2)cc(C2(C)CC2)n1 (stereo not shown) [Compound 27, N-[4-[2-[4-[2-tert-butyl-6-(1-methylcyclopropyl)pyrimidin-4-yl]piperazin-1-yl]ethyl]cyclohexyl]-4-hydroxy-cyclohexanecarboxamide] | < 10 | ++ (++>20) | + (+: 20-120 μl min^−1 mg^−1) |
| CC(C)(C)c1nc(N2CCN(CC[C@H]3CC[C@H](NC(=O)[C@H]4CC[C@H](O)CC4)CC3)CC2)cc(C(F)(F)F)n1 [Compound 21, trans-N-[trans-4-[2-[4-[2-tert-butyl-6-(trifluoromethyl)pyrimidin-4-yl]piperazin-1-yl]ethyl]cyclohexyl]-4-hydroxy-cyclohexanecarboxamide] | < 10 | ++ (++>20) | + (+: 20-120 μl min^−1 mg^−1) |
| CC(C)(C)c1nc(C2CCC2)cc(N2CCN(CC[C@H]3CC[C@@H](NC(=O)[C@H]4CC[C@H](O)CC4)CC3)CC2)n1 [Compound 6, trans-N-[cis-4-[2-[4-(2-tert-butyl-6-cyclobutyl-pyrimidin-4-yl)piperazin-1-yl]ethyl]cyclohexyl]-4-hydroxy-cyclohexanecarboxamide] | < 10 | +++ (+++>50) | + (+: 20-120 μl min^−1 mg^−1) |
| COCCc1cc(N2CCN(CC[C@H]3CC[C@H](NC(=O)[C@H]4CC[C@H](O)CC4)CC3)CC2)nc(C(C)(C)C)n1 [Compound 2, trans-N-[trans-4-[2-[4-[2-tert-butyl-6-(2-methoxyethyl)pyrimidin-4-yl]piperazin-1-yl]ethyl]cyclohexyl]-4-hydroxy-cyclohexanecarboxamide] | < 10 | ++ (++>20) | + (+: 20-120 μl min^−1 mg^−1) |
| CC(C)(C)c1nc(C2CCC2)cc(N2CCN(CC[C@H]3C[C@H](NC(=O)[C@H]4CC[C@H](O)CC4)C3)CC2)n1 [Compound 9, Trans-N-[trans-3-[2-[4-(2-tert-butyl-6-cyclobutyl-pyrimidin-4-yl)piperazin-1-yl]ethyl]cyclobutyl]-4-hydroxy-cyclohexanecarboxamide] | < 10 | +++ (+++>50) | + (+: 20-120 μl min^−1 mg^−1) |
| COCCc1cc(N2CCN(CC[C@H]3CC[C@@H](NC(=O)C4CC(O)(C(F)(F)F)C4)CC3)CC2)nc(C(C)(C)C)n1 (relative stereo) [Compound 26, N-[cis-4-[2-[4-[2-tert-butyl-6-(2-methoxyethyl)pyrimidin-4-yl]piperazin-1-yl]ethyl]cyclohexyl]-3-hydroxy-3-(trifluoromethyl)cyclobutanecarboxamide] | < 50 | +++ (+++>50) | ++ (++: <20 μl min^−1 mg^−1) |
| COCc1cc(N2CCN(CC[C@H]3CC[C@H](NC(=O)[C@H]4CC[C@H](O)CC4)CC3)CC2)nc(C(C)(C)C)n1 [Compound 37, trans-N-[trans-4-[2-[4-[2-tert-butyl-6-(methoxymethyl)pyrimidin-4-yl]piperazin-1-yl]ethyl]cyclohexyl]-4-hydroxy-cyclohexanecarboxamide] | < 10 | +++ (+++>50) | + (+: 20-120 μl min^−1 mg^−1) |
| COCCc1cc(N2CCN(CC[C@H]3C[C@H](NC(=O)[C@H]4CC[C@H](O)CC4)C3)CC2)nc(C(C)(C)C)n1.O=C(O)C(F)(F)F [Compound 7, Trans-N-[trans-3-[2-[4-[2-tert-butyl-6-(2-methoxyethyl)pyrimidin-4-yl]piperazin-1-yl]ethyl]cyclobutyl]-4-hydroxy-cyclohexanecarboxamide; 2,2,2-trifluoroacetic acid] | < 10 | +++ (+++>50) | + (+: 20-120 μl min^−1 mg^−1) |
| CC(C)(C)c1nc(C2CCCC2)cc(N2CCN(CC[C@H]3CC[C@H](NC(=O)[C@H]4CC[C@H](O)CC4)CC3)CC2)n1 [Compound 35, trans-N-[trans-4-[2-[4-(2-tert-butyl-6-cyclopentyl-pyrimidin-4-yl)piperazin-1-yl]ethyl]cyclohexyl]-4-hydroxy-cyclohexanecarboxamide] | < 10 | + (+>10) | + (+: 20-120 μl min^−1 mg^−1) |
| CC(C)(C)c1cc(N2CCN(CC[C@H]3CC[C@@H](NC(=O)[C@H]4CC[C@H](O)CC4)CC3)CC2)nc(C(C)(C)C)n1 [Compound 22, trans-N-[cis-4-[2-[4-(2,6-ditert-butylpyrimidin-4-yl)piperazin-1-yl]ethyl]cyclohexyl]-4-hydroxy-cyclohexanecarboxamide] | < 50 | +++ (+++>50) | + (+: 20-120 μl min^−1 mg^−1) |
| CC(C)(C)c1nc(C2CCC2)cc(N2CCN(CC[C@H]3CC[C@@H](NC(=O)[C@H]4CC[C@@H](O)CC4)CC3)CC2)n1.O=C(O)C(F)(F)F [Compound 15, Cis-N-[cis-4-[2-[4-(2-tert-butyl-6-cyclobutyl-pyrimidin-4-yl)piperazin-1-yl]ethyl]cyclohexyl]-4-hydroxy-cyclohexanecarboxamide; 2,2,2-trifluoroacetic acid] | < 10 | +++ (+++>50) | ∘ (∘: >120 μl min^−1 mg^−1) |
| COCCc1cc(N2CCN(CC[C@H]3CC[C@@H](NC(=O)[C@H]4CC[C@H](O)CC4)CC3)CC2)nc(C(C)(C)C)n1 [Compound 3, trans-N-[cis-4-[2-[4-[2-tert-butyl-6-(2-methoxyethyl)pyrimidin-4-yl]piperazin-1-yl]ethyl]cyclohexyl]-4-hydroxy-cyclohexanecarboxamide] | < 10 | ++ (++>20) | + (+: 20-120 μl min^−1 mg^−1) |
| COCc1cc(N2CCN(CC[C@H]3CC[C@H](NC(=O)[C@H]4C[C@@H](O)C4)CC3)CC2)nc(C(C)(C)C)n1 [Compound 40, cis-N-[trans-4-[2-[4-[2-tert-butyl-6-(methoxymethyl)pyrimidin-4-yl]piperazin-1-yl]ethyl]cyclohexyl]-3-hydroxy-cyclobutanecarboxamide] |  |  | + (+: 20-120 μl min^−1 mg^−1) |
